Measurements taken from US4136179A, “2,2-Dimethyl-19-nor-steroids” (Roussel Uclaf, priority 1976, dated 1979).

Test system: aldosterone monoacetate
Assay: Anti-aldosterone activity in surrenalectomized rats (urinary sodium/potassium)
Assay type: in vivo, rat (male, Sprague-Dawley)
Details: for % inhibition of the activity of 1 μg/kg of aldosterone monoacetate: surrenalectomized male Sprague-Dawley rats, aldosterone 1 μg/kg s.c., 4 hours urine, sodium and potassium; for antialdosterone activity (in words): orally administered
Method: Male rats of the Sprague-Dawley strain weighing about 180 g were surrenalectomized and at that moment, the rats received with their drinking water physiological serum. On the 4th day, the animals were fasted for 16 hours and then received as drinking water water containing 5% glucose. The test product was administered orally at the end of 16 hours in the form of a suspension in 0.25% carboxymethylcellulose. One hour after the administration of the product, they received intraperitoneally a surcharge of aqueous sodium chloride at a rate of 5 ml per 100 g of body weight of […] physiological serum and subcutaneously 1 μg/kg of an alcoholic solution of 2.5% of aldosterone acetate. The animals were placed in diuresis cages without food or drink for 4 hours. At the end of this time, a miction was forced by pressure on the bladder and the volume of urine was adjusted to 50 ml and the amount of sodium and potassium was determined with an autoanalyser. The results expressed as the percentage of inhibition of the activity of 1 μg/kg of aldosterone monoacetate injected subcutaneously with the ratio of [formula] in the surrenalectomized rats is reported in the following Table.

Structure (SMILES) | % inhibition of the activity of 1 μg/kg of aldosterone monoacetate (oral dose 5 mg/kg) | antialdosterone activity (in words) | % inhibition of the activity of 1 μg/kg of aldosterone monoacetate (oral dose 10 mg/kg)
CC1(C)CC2C(=CC1=O)CCC1C2CCC2(C)C(C(=O)CO)CCC12 (stereo not shown) [Example 3, 2,2-dimethyl-19-nor-Δ^4-pregnene-21-ol-3,20-dione] | 50% | interesting antialdosterone activity | 
CC1(C)CC2=C3C=CC4(C)C(C(=O)CO)CCC4C3CCC2=CC1=O (stereo not shown) [Example 9, 2,2-dimethyl-19-nor-Δ^4,9,11-pregnatriene-21-ol-3,20-dione] |  | interesting antialdosterone activity | 91%
